ChEMBL document CHEMBL3885881, “DrugMatrix”

Species on record: Rattus norvegicus
Assay: DrugMatrix - Regimen: Daily Repeat
Assay type: toxicity, organism-based, Sprague-Dawley
Set-up: regimen Daily Repeat, gender Male, age 6-8 weeks
Conditions: in vivo, po, route oral GAVAGE, vehicle 100 % SALINE; for ABSOLUTE BASOPHIL / ABSOLUTE EOSINOPHIL / ABSOLUTE LYMPHOCYTE / ABSOLUTE MONOCYTE / ABSOLUTE SEGMENTED NEUTROPHIL / BASOPHIL / EOSINOPHIL / ERYTHROCYTE COUNT / HEMATOCRIT / HEMOGLOBIN / LEUKOCYTE COUNT / LYMPHOCYTE / MEAN CORPUSCULAR HEMOGLOBIN / MEAN CORPUSCULAR HEMOGLOBIN CONCENTRATION / MEAN CORPUSCULAR VOLUME / MONOCYTE / NEUTROPHIL / NUCLEATED RED BLOOD CELLS / PLATELET COUNT: tissue Blood; for ALANINE AMINOTRANSFERASE / ALBUMIN / ALKALINE PHOSPHATASE / ASPARTATE AMINOTRANSFERASE / BLOOD UREA NITROGEN / CARBON DIOXIDE / CHLORIDE / CHOLESTEROL / CREATINE PHOSPHOKINASE / CREATININE / GLUCOSE / LACTATE DEHYDROGENASE / LIPASE / PHOSPHORUS / POTASSIUM / SODIUM / TOTAL BILIRUBIN / TOTAL PROTEIN / URIC ACID: tissue Plasma
[1] = 0 mg/kg, 72 h, dose level Control, time 3 day
[2] = 0 mg/kg, 120 h, dose level Control, time 5 day
[3] = 59 mg/kg, 72 h, dose level Low, time 3 day

NC(=O)NO [HYDROXYUREA]
ABSOLUTE BASOPHIL [1]: 0 CELLS/uL | ABSOLUTE EOSINOPHIL [1]: 16.17 CELLS/uL | ABSOLUTE LYMPHOCYTE [1]: 9117 CELLS/uL | ABSOLUTE MONOCYTE [1]: 16.17 CELLS/uL | ABSOLUTE SEGMENTED NEUTROPHIL [1]: 484 CELLS/uL | BASOPHIL [1]: 0% | EOSINOPHIL [1]: 0.17% | ERYTHROCYTE COUNT [1]: 5.19 x10E6/uL | HEMATOCRIT [1]: 34.9% | HEMOGLOBIN [1]: 13.35 G/DL | LEUKOCYTE COUNT [1]: 9.63 x10E3/uL | LYMPHOCYTE [1]: 94.5% | MEAN CORPUSCULAR HEMOGLOBIN [1]: 25.72 pg | MEAN CORPUSCULAR HEMOGLOBIN CONCENTRATION [1]: 38.25 G/DL | MEAN CORPUSCULAR VOLUME [1]: 67.22 fL | MONOCYTE [1]: 0.17% | NEUTROPHIL [1]: 5.17% | NUCLEATED RED BLOOD CELLS [1]: 0.33 /100WBC | PLATELET COUNT [1]: 1142 x10E3/uL | ALANINE AMINOTRANSFERASE [1]: 47.33 u/L | ALBUMIN [1]: 4.13 G/DL | ALKALINE PHOSPHATASE [1]: 320.33 u/L | ASPARTATE AMINOTRANSFERASE [1]: 76.17 u/L | BLOOD UREA NITROGEN [1]: 12.67 mg/dL | CARBON DIOXIDE [1]: 30.83 mmol/L | CHLORIDE [1]: 99 MEQ/L | CHOLESTEROL [1]: 74.17 mg/dL | CREATINE PHOSPHOKINASE [1]: 271 u/L | CREATININE [1]: 0.15 mg/dL | GLUCOSE [1]: 150.5 mg/dL | LACTATE DEHYDROGENASE [1]: 92.67 u/L | LIPASE [1]: 10 u/L | PHOSPHORUS [1]: 10.67 mg/dL | POTASSIUM [1]: 5.78 MEQ/L | SODIUM [1]: 142.83 MEQ/L | TOTAL BILIRUBIN [1]: 0.1 mg/dL | TOTAL PROTEIN [1]: 6.18 G/DL | URIC ACID [1]: 0.65 mg/dL | ABSOLUTE BASOPHIL [2]: 0 CELLS/uL | ABSOLUTE EOSINOPHIL [2]: 0 CELLS/uL | ABSOLUTE LYMPHOCYTE [2]: 8222.33 CELLS/uL | ABSOLUTE MONOCYTE [2]: 89.67 CELLS/uL | ABSOLUTE SEGMENTED NEUTROPHIL [2]: 471.33 CELLS/uL | BASOPHIL [2]: 0% | EOSINOPHIL [2]: 0% | ERYTHROCYTE COUNT [2]: 5.13 x10E6/uL | HEMATOCRIT [2]: 33.47% | HEMOGLOBIN [2]: 12.97 G/DL | LEUKOCYTE COUNT [2]: 8.78 x10E3/uL | LYMPHOCYTE [2]: 93% | MEAN CORPUSCULAR HEMOGLOBIN [2]: 25.3 pg | MEAN CORPUSCULAR HEMOGLOBIN CONCENTRATION [2]: 38.77 G/DL | MEAN CORPUSCULAR VOLUME [2]: 65.23 fL | MONOCYTE [2]: 1% | NEUTROPHIL [2]: 6% | NUCLEATED RED BLOOD CELLS [2]: 0 /100WBC | PLATELET COUNT [2]: 1298.5 x10E3/uL | ALANINE AMINOTRANSFERASE [2]: 56 u/L | ALBUMIN [2]: 3.98 G/DL | ALKALINE PHOSPHATASE [2]: 321.67 u/L | ASPARTATE AMINOTRANSFERASE [2]: 99.17 u/L | BLOOD UREA NITROGEN [2]: 13.8 mg/dL | CARBON DIOXIDE [2]: 29 mmol/L | CHLORIDE [2]: 98.67 MEQ/L | CHOLESTEROL [2]: 59.67 mg/dL | CREATINE PHOSPHOKINASE [2]: 363 u/L | CREATININE [2]: 0.24 mg/dL | GLUCOSE [2]: 167.83 mg/dL | LACTATE DEHYDROGENASE [2]: 120.83 u/L | LIPASE [2]: 22.5 u/L | PHOSPHORUS [2]: 11.6 mg/dL | POTASSIUM [2]: 5.62 MEQ/L | SODIUM [2]: 143 MEQ/L | TOTAL BILIRUBIN [2]: 0.17 mg/dL | TOTAL PROTEIN [2]: 5.95 G/DL | URIC ACID [2]: 0.87 mg/dL | ABSOLUTE BASOPHIL [3]: 0 CELLS/uL | ABSOLUTE EOSINOPHIL [3]: 15 CELLS/uL | ABSOLUTE LYMPHOCYTE [3]: 4978 CELLS/uL | ABSOLUTE MONOCYTE [3]: 44 CELLS/uL | ABSOLUTE SEGMENTED NEUTROPHIL [3]: 663 CELLS/uL | BASOPHIL [3]: 0% | EOSINOPHIL [3]: 0.33% | ERYTHROCYTE COUNT [3]: 5.08 x10E6/uL | HEMATOCRIT [3]: 33.63% | HEMOGLOBIN [3]: 12.83 G/DL | LEUKOCYTE COUNT [3]: 5.7 x10E3/uL | LYMPHOCYTE [3]: 87.67% | MEAN CORPUSCULAR HEMOGLOBIN [3]: 25.3 pg | MEAN CORPUSCULAR HEMOGLOBIN CONCENTRATION [3]: 38.17 G/DL | MEAN CORPUSCULAR VOLUME [3]: 66.27 fL | MONOCYTE [3]: 0.67% | NEUTROPHIL [3]: 11.33% | NUCLEATED RED BLOOD CELLS [3]: 0 /100WBC | PLATELET COUNT [3]: 1118 x10E3/uL | ALANINE AMINOTRANSFERASE [3]: 47.33 u/L | ALBUMIN [3]: 4.17 G/DL | ALKALINE PHOSPHATASE [3]: 328 u/L | ASPARTATE AMINOTRANSFERASE [3]: 73.67 u/L | BLOOD UREA NITROGEN [3]: 11.33 mg/dL | CARBON DIOXIDE [3]: 30 mmol/L | CHLORIDE [3]: 99 MEQ/L | CHOLESTEROL [3]: 75.33 mg/dL | CREATINE PHOSPHOKINASE [3]: 258 u/L | CREATININE [3]: 0.2 mg/dL | GLUCOSE [3]: 152 mg/dL | LACTATE DEHYDROGENASE [3]: 90 u/L | LIPASE [3]: 10 u/L | PHOSPHORUS [3]: 10.83 mg/dL | POTASSIUM [3]: 5.95 MEQ/L | SODIUM [3]: 142.63 MEQ/L | TOTAL BILIRUBIN [3]: 0.1 mg/dL | TOTAL PROTEIN [3]: 6.07 G/DL | URIC ACID [3]: 0.9 mg/dL
